{"source": "patent US8314068B2", "about": "“P2X7 inhibition of epithelial cancers and papillomas” (University Hospitals of Cleveland, priority 2009, dated 2012)", "key": {"mouse skin": {"tested_on": "mouse skin", "experiment": "Local BzATP on normal mouse dorsal skin, 16 weeks (safety, TUNEL, Ki67)", "type": "in vivo", "experimental": "BzATP was applied locally twice a week on the surface of the shaved dorsal skin for a total of 16 weeks. The control group included mice that had their back shaved and were treated only with the vehicle. […] See, FIGS. 14A & 14C versus FIGS. 14B & 14D, respectively.\nImage-analysis of immunofluorescence data was described (Li et al, 2007). Representative fields were captured and saved in Adobe Photoshop. Pictures were scanned using UN-SCAN-IT (Silk Scientific, Orem Utah) by choosing 3-5 representative fields for each picture. Light intensity in each field was digitized and average pixel density per field was determined using the program software.\nTUNEL assays in tissues cross sections were performed using DeadEnd™ Fluorometric TUNEL System (Promega, Madison, Wis.) according to the manufacturer's protocol. For TUNEL-P2X7 co-staining, tissue cross sections were first assayed for TUNEL, followed by P2X7 immunostaining.\nExperiments using mice were done according to an approved CWRU IACUC IRB protocol [2006-0141]. Experiments utilized 6-8 weeks old FVB female mice (obtained from Charles River, Wilmington, Mass.). The animal's dorsal skin (about 3×5 cm) was shaved using Oster animal clipper (Mountain Home, Ark.) followed by weekly application of Nair® hair remover lotion. Treatments included the application of one or more of the following drugs, directly onto the shaved dorsal skin: DMBA (50 μg/200 μl acetone [950 μM, 190 nmol, 3.3 μg/cm^2]); TPA (3 μg/200 μl acetone [20 μM, 4 nmol, 0.2 μg/cm^2]); BzATP (14.3 μg/200 μl of 2.3/1 vol/vol solution of propylene-glycol [PG]/ethanol [EtOH][100 μM, 20 nmol, 1.0 μg/cm^2]); or the BzATP vehicle only (200 μl of PG/EtOH). DMBA was applied once, while TPA and BzATP were applied twice a week. Skin neoplasia in the mice were induced by the “Two-Step” method, which involved tumor initiation by local treatment with 7,12-dimethylbenz(a)anthracene (DMBA), followed by tumor promotion with local treatment of 12-O-tetradecanoylphorbol-13-acetate (TPA). Guo et al., “Disruption of EphA2 receptor tyrosine kinase leads to increased susceptibility to carcinogenesis in mouse skin” Cancer Res 2006, 66:7050-7058. The concentration/dose of BzATP and frequency of treatments were chosen based on data in cultured cells (supra).\nFrom each animal blood samples were obtained from the retro-bulbar venous complex for ALT (SGPT) and AST (SGOT) assays. In addition, dorsal skin strips were obtained from each animal for microscopic H&E tissue evaluation, Ki67 immunostaining, and in-situ detection of DNA fragmentation by the TUNEL method.\nAssays used Liquid ALT and Liquid AST reagent sets (Cat # A7526-150a and A7561-150, respectively) obtained from Pointe Scientific (Canton Mich.), and were performed according to the supplier instructions."}, "[1]": {"tested_on": "DMBA/TPA-induced skin papillomas", "experiment": "DMBA/TPA mouse skin papilloma model, 12 weeks (Experiment-3)", "type": "in vivo"}, "[2]": {"tested_on": "DMBA/TPA-induced skin papillomas and squamous spindle-cell carcinomas", "experiment": "DMBA/TPA mouse skin papilloma and cancer model, 28 weeks (Experiment-4)", "type": "in vivo"}, "[3]": {"tested_on": "P2X7−/−Pf and P2X7−/−GSK keratinocytes", "experiment": "Apoptosis in keratinocytes of P2X7-receptor-deficient mice", "type": "cell-based, mouse", "conditions": "100 μM BzATP", "experimental": "FIG. 16C: BzATP time-response effect in cultured mouse normal keratinocytes (wild-type, C57B1; filled triangles), or in keratinocytes obtained from C57B1 background P2X7-deficient mice (P2X7^−/−Pfizer; empty circles; or P2X7^−/−GSK; filled circles). Values are means (±SD) of 3 experiments for each condition. Changes in apoptosis were determined using cell-death detection ELISA.\nApoptosis of cultured mouse keratinocytes was quantified in terms of percent solubilized DNA, or by using the commercial cell-death detection ELISA kit (Roche Applied Science, Nutley, N.J.). Wang et al., “P2X7-receptor mediated apoptosis of human cervical epithelial cells” Am J Physiol 2004, 287:C1349-C1358; and Feng et al., “A truncated P2X7 receptor variant (P2X7-j) endogenously expressed in cervical cancer cells antagonizes the full-length P2X7 receptor through hetero-oligomerization” J Biol Chem 2006, 281:17228-17237, respectively.\nThe experiments utilized primary cultures of epidermal keratinocytes generated from 6-8 weeks old wild-type C57B1 mice (Charles River, Wilmington, Mass.); from P2X7^−/−Pfizer mice constructed by deletion of amino acids 506-532 of the C-terminus (Solle et al., “Altered cytokine production in mice lacking P2X(7) receptors” J Biol Chem 2001, 276:125-32), or from P2X7^−/−GSK mice, which have a lacZ gene inserted at the beginning of exon 1, resulting knockout of the receptor. […]"}, "[4]": {"conditions": "biological solutions, range of temperatures and pH; cited from earlier work"}}, "note": "“Also recorded” adds a separate entry of the source."}
{"molecule": "Nc1ncnc2c1ncn2[C@@H]1O[C@H](COP(=O)(O)OP(=O)(O)OP(=O)(O)O)[C@@H](OC(=O)c2ccc(C(=O)c3ccccc3)cc2)[C@H]1O", "note": "[BzATP, 3′-O-(4-benzoylbenzoyl)adenosine triphosphate]", "values": [{"measurement": "Ki67 immunoreactivity versus control group", "setting": "mouse skin; 16 weeks", "result": "no significant differences in Ki67 immunoreactivity"}, {"measurement": "histological evaluation of dorsal skin versus control group", "setting": "mouse skin; 16 weeks", "result": "no differences"}, {"measurement": "mean serum levels of ALT (SGPT) and AST (SGOT)", "setting": "mouse skin; 16 weeks", "result": "in the normal range for the mouse"}, {"measurement": "TUNEL pixel density, hair-shaft cross sections", "setting": "mouse skin; 16 weeks, n=3", "result": "6.1±0.8"}, {"measurement": "TUNEL staining mean pixel density (±SD), epidermis", "setting": "mouse skin; 16 weeks, n=3", "result": "5.2±0.3"}, {"measurement": "thinning or ulceration of the skin", "setting": "mouse skin; 16 weeks, normal mice", "result": "did not produce a thinning or ulceration of the skin"}, {"measurement": "local or systemic adverse effects of local BzATP treatment", "setting": "mouse skin; mice, applied locally on the skin", "result": "did not result in any local or systemic adverse events; also recorded: no adverse systemic effects; also recorded: no significant effect on the behavior of the animals, feeding habits, body weight, and liver functions; also recorded: did not produce local or systemic adverse effects"}, {"measurement": "behavior, feeding habits, body weights", "setting": "mouse skin; twice a week, 16 weeks, local", "result": "no effects were observed"}, {"measurement": "gross appearance of the treated skin", "setting": "mouse skin; twice a week, 16 weeks, local", "result": "no noticeable effect"}, {"measurement": "TUNEL staining of papilloma tissues", "setting": "[1]; biopsy at week 10, basal/parabasal regions", "result": "intense TUNEL staining"}, {"measurement": "decrease of mean number of papillomas per animal", "setting": "[1]; versus DMBA/TPA group", "result": "about 25%"}, {"measurement": "decrease of mean papilloma size", "setting": "[1]; versus DMBA/TPA group", "result": "about 45%"}, {"measurement": "animals having at least one papilloma", "setting": "[1]; week 6, DMBA/TPA+BzATP group", "result": 53.8, "unit": "%"}, {"measurement": "papillomas per animal (mean±SEM)", "setting": "[1]; week 10, DMBA/TPA+BzATP group", "result": "1.23±0.34"}, {"measurement": "animals with at least one skin papilloma", "setting": "[1]; week 12, DMBA/TPA+BzATP group", "result": 78, "unit": "%"}, {"measurement": "mean papilloma size per animal (mean±SEM)", "setting": "[1]; week 12, DMBA/TPA+BzATP group", "result": "3.46 ±0.73", "unit": "mm"}, {"measurement": "inhibition of papilloma and skin cancer formation", "setting": "[2]; 1 μg/cm^2 BzATP applied locally twice weekly", "result": 50, "unit": "%"}, {"measurement": "effect on P2X7 receptor expression in skin cancers", "setting": "[2]; immunoreactivity in cross sections", "result": "did not effect P2X7 receptor expression in cancer cells"}, {"measurement": "overall survival rates versus DMBA/TPA group", "setting": "[2]; log-rank test", "result": "did not differ statistically"}, {"measurement": "TUNEL staining in papillomas and cancer tissues versus DMBA/TPA group", "setting": "[2]; mouse, in vivo", "result": "more intense"}, {"measurement": "development of cancerous lesions (time-to-event) versus DMBA/TPA group", "setting": "[2]; mouse, in vivo", "result": "significantly slower and lower"}, {"measurement": "proportion of living animals with cancerous lesions >200 mm^3, difference to DMBA/TPA group", "setting": "[2]; mouse, in vivo", "result": "did not reach statistical significance"}, {"measurement": "proportion of living animals having a papilloma", "setting": "[2]; week 5, DMBA/TPA+BzATP group", "result": "48±12", "unit": "%"}, {"measurement": "papillomas per animal (mean±SD)", "setting": "[2]; week 10, DMBA/TPA+BzATP group", "result": "1.2±0.4"}, {"measurement": "mean total papillomas size per animal (mean±SD)", "setting": "[2]; week 12, DMBA/TPA+BzATP group", "result": "3.4±1.0", "unit": "mm^3"}, {"measurement": "proportion of animals with cancers", "setting": "[2]; week 14, mice co-treated with BzATP", "result": 50, "unit": "%"}, {"measurement": "proportion of living animals with cancerous lesions", "setting": "[2]; week 28, DMBA/TPA+BzATP group", "result": "43±9", "unit": "%"}, {"measurement": "proportion of living animals with cancerous lesions >10 mm^3", "setting": "[2]; week 28, DMBA/TPA+BzATP group", "result": "16±4", "unit": "%"}, {"measurement": "lowering of incidence of cancerous lesions", "setting": "[2]; week 28, co-treated with BzATP", "result": "about 50%"}, {"measurement": "lowering of incidence of papillomas", "setting": "[2]; weeks 0-12, co-treated with BzATP", "result": "about 50%"}, {"measurement": "effect on number of cancerous lesions per animal", "setting": "[2]; weeks 14-28", "result": "little effect"}, {"measurement": "induction of apoptosis", "setting": "[3]", "result": "failed to induce apoptosis"}, {"measurement": "stability", "setting": "[4]", "result": "relatively stable compound in biological solutions and across a broad range of temperatures and pH"}]}
